Where a name gives a salt, the structure may show the parent alone.
Legend:
[1] = test system: guinea pig ileum, contraction induced with LTD4; assay: Antileukotriene action, in vitro test on isolated ileum (contraction induced with LTD4); details: contraction induced with 10^-8 M LTD4; 29° C; read-out: Anti-LTD4 action IC50
H1 Receptor = target: T1, H1 Receptor (Cavia porcellus, UniProt P31389); assay: H1 Receptor Binding Inhibitory Test; set-up: species or system guinea pig
T1 construct: guinea pig cerebral membrane protein; from tissue; host or cells: guinea pig cerebral membranes
T1 sequence (P31389 whole entry): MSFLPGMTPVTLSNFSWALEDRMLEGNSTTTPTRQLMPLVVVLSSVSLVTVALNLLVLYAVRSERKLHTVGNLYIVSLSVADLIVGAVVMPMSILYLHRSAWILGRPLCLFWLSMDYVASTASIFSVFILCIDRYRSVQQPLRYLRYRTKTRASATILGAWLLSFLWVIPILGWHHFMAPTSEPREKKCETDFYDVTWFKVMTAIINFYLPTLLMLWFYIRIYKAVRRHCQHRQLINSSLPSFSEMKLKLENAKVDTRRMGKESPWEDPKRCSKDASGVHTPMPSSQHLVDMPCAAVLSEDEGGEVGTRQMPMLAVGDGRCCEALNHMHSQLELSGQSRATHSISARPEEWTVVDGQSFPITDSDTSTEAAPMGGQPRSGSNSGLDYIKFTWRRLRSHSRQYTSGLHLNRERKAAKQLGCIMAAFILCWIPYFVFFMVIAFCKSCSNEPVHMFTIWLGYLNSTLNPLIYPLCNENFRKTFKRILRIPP
Procedure: Reaction was stopped by addition of ice-cold phosphate buffer, and immediately thereafter, the reaction mixture was filtered by use of a Wattman CF/C filter. The filter was washed twice, each time with 20 ml ice-cold buffer. Radioactivity of the residue was measured by use of a liquid scintillation counter. From the value as obtained when a test compound was not added and values as obtained when the test compound was added at different concentrations, there was determined a dose-response curve representing suppression action of the test compound, from which a 50% inhibitory concentration (IC50) was obtained. Based on the IC50 value and by use of the Cheng-Prusoff equation, a dissociation constant (KD) was calculated (Table 9). In a saturation test, 10^-4 M R(-)-dimetindene was used for the measurement of the amount of non-specific binding.

LTD4 Receptor = target: T2, LTD4 Receptor (Cavia porcellus, UniProt Q2NNR5); assay: LTD4 Receptor Binding Inhibitory Test; set-up: species or system guinea pig
T2 construct: guinea pig lung protein; from tissue; host or cells: guinea pig lung
T2 sequence (Q2NNR5 1-340): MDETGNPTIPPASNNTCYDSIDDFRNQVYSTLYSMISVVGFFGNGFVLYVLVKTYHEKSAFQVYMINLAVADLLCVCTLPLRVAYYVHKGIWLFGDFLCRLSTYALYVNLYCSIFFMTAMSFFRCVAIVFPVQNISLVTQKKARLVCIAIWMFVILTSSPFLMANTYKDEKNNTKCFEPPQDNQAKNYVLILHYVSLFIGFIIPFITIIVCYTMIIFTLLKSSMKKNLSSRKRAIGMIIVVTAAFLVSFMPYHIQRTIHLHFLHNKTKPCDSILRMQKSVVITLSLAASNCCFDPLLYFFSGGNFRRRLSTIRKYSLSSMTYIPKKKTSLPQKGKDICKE
Procedure: Reaction was stopped by addition of ice-cold Tris-HCl/NaCl (10 mM/100 mM, pH 7.5) buffer, and immediately thereafter, the reaction mixture was filtered by use of a Wattman CF/C filter. The filter was washed twice, each time with 20 ml ice-cold buffer. Radioactivity of the residue was measured by use of a liquid scintillation counter. […] In a saturation test, 2 μM leukotriene D4 was used for the measurement of the amount of non-specific binding.

[2] = target: guinea pig ileum, contraction in response to histamine (Cavia porcellus, UniProt P31389); assay: Antihistaminic action, in vitro test on isolated ileum (contraction in response to histamine); details: 10^-8 to 10^-4 M histamine dose-response curve, 30 min after test compound, 29° C; for Kb: read-out: Anti-histaminic action, pA2 (converted)
Chain of guinea pig ileum, contraction in response to histamine (P31389 whole entry): as the sequence (P31389 whole entry) above

| SMILES | IC50 [1] [nM] | Kd (H1 Receptor) [nM] | Kd (LTD4 Receptor) [nM] | Anti-histaminic action, pD'2 [2] | Kb [2] [nM] |
| --- | --- | --- | --- | --- | --- |
| COc1ccc2[nH]c(=O)c(-c3nnn(Cc4cccc(OCc5ccc6ccccc6n5)c4)n3)cc2c1 [Example 1, 6-methoxy-3-{2-[3-(2-quinolylmethoxy)benzyl]tetrazolyl}quinolin-2-one] | 90 | 2960 | 114 | 5.53 |  |
| COc1ccc2[nH]c(=O)c(-c3nnnn3Cc3cccc(OCc4ccc5ccccc5n4)c3)cc2c1 [Example 2, 6-methoxy-3-{1-[3-(2-quinolylmethoxy)benzyl]tetrazolyl}quinolin-2-one] | 250 |  |  |  | 4170 |
| CCOCCn1c(COc2ccc(Cn3nnc(-c4cc5cc(OC)ccc5[nH]c4=O)n3)cc2)nc2ccccc21 [Example 6, 3-{2-{4-[N-(2-Ethoxyethyl)benzimidazol-2-ylmethoxy]benzyl}tetrazolyl}-6-methoxyquinolin-2-one] | 1100 | 3290 | 8110 |  | 40.7 |
| Cn1c(COc2cccc(Cn3nnc(-c4cc5ccccc5[nH]c4=O)n3)c2)nc2ccccc21 [Example 8, 3-{2-[3-(N-Methylbenzimidazol-2-ylmethoxy)benzyl]tetrazolyl}quinolin-2-one] |  | 9380 | 143 |  |  |
| Cn1c(COc2cccc(Cn3nnnc3-c3cc4ccccc4[nH]c3=O)c2)nc2ccccc21 [Example 9, 3-{1-[3-(N-Methylbenzimidazol-2-ylmethoxy)benzyl]tetrazolyl}quinolin-2-one] |  | 13700 | 320 |  |  |
| CC(C)(C)c1ccc2[nH]c(=O)c(-c3nnnn3Cc3cccc(OCc4ccc5ccccc5n4)c3)cc2c1 [Example 18, 6-tert-Butyl-3-{1-[3-(2-quinolylmethoxy)-benzyl]tetrazolyl}quinolin-2-one] |  | 22800 | 509 |  |  |
| O=c1[nH]c2ccc(O)cc2cc1-c1nnn(Cc2ccc(OCc3ccc4ccccc4n3)cc2)n1 [Example 22, 6-Hydroxy-3-{2-[4-(2-quinolylmethoxy)benzyl]-tetrazolyl}quinolin-2-one] |  | 30100 | 364 |  |  |
| COc1ccc2[nH]c(=O)c(-c3nnn(Cc4ccc(OCc5ccc6ccccc6n5)cc4)n3)cc2c1 [Example 24, 6-Methoxy-3-{2-[4-(2-quinolylmethoxy)benzyl]-tetrazolyl}quinolin-2-one] |  | 9510 | 205 |  |  |
| COc1ccc2[nH]c(=O)c(-c3nnnn3Cc3ccc(OCc4ccc5ccccc5n4)cc3)cc2c1 [Example 25, 6-Methoxy-3-{1-[4-(2-quinolylmethoxy)benzyl]-tetrazolyl}quinolin-2-one] |  | 13900 | 5.86 |  |  |
| O=c1[nH]c2ccccc2cc1-c1nnn(Cc2cccc(OCc3ccc4ccccc4n3)c2)n1 [Example 26, 3-{2-[3-(2-Quinolylmethoxy)benzyl]-tetrazolyl}quinolin-2-one] | 179 | 89500 | 179 | 5.24 |  |
| O=c1[nH]c2ccc(O)cc2cc1-c1nnn(Cc2cccc(OCc3ccc4ccccc4n3)c2)n1 [Example 28, 6-Hydroxy-3-{2-[3-(2-quinolylmethoxy)benzyl]-tetrazolyl}quinolin-2-one] |  | 13900 | 21 |  |  |
| O=c1[nH]c2ccc(O)cc2cc1-c1nnnn1Cc1cccc(OCc2ccc3ccccc3n2)c1 [Example 29, 6-Hydroxy-3-{1-[3-(2-quinolylmethoxy)benzyl]-tetrazolyl}quinolin-2-one] |  | 57200 | 13.6 |  |  |
| COc1ccc2c(c1)cc(-c1nnn(Cc3cccc(OCc4ccc5ccccc5n4)c3)n1)c(=O)n2C [Example 38, 6-methoxy-1-methyl-3-{2-[3-(2-quinolylmethoxy)benzyl]tetrazolyl}quinolin-2-one] | 160 |  |  | 5.52 |  |
| CN(C)CCn1c(=O)c(-c2nnn(Cc3cccc(OCc4ccc5ccccc5n4)c3)n2)cc2cc(O)ccc21 [Example 39, 1-Dimethylaminoethyl-6-hydroxy-3-{2-[3-(2-quinolylmethoxy)benzyl]tetrazolyl}quinolin-2-one] |  |  |  |  | 30.2 |
| CN(C)CCn1c(=O)c(-c2nnnn2Cc2cccc(OCc3ccc4ccccc4n3)c2)cc2cc(O)ccc21 [Example 40, 1-Dimethylaminoethyl-6-hydroxy-3-{1-[3-(2-quinolylmethoxy)benzyl]tetrazolyl}quinolin-2-one] |  |  |  |  | 251 |
| COc1ccc2c(c1)cc(-c1nnn(Cc3cccc(OCc4ccc5ccccc5n4)c3)n1)c(=O)n2CCN(C)C [Example 41, 1-Dimethylaminoethyl-6-methoxy-3-{2-[3-(2-quinolylmethoxy)benzyl]tetrazolyl}quinolin-2-one] |  |  |  | 5.58 |  |
| CN(C)CCCn1c(=O)c(-c2nnn(Cc3cccc(OCc4ccc5ccccc5n4)c3)n2)cc2cc(O)ccc21 [Example 42, 1-Dimethylaminopropyl-6-hydroxy-3-{2-[3-(2-quinolylmethoxy)benzyl]tetrazolyl}quinolin-2-one] |  |  |  |  | 55 |
| CN(C)CCn1c(=O)c(-c2nnn(Cc3cccc(C=Cc4ccc5ccccc5n4)c3)n2)cc2cc(O)ccc21 [Example 43, 1-Dimethylaminoethyl-6-hydroxy-3-{2-[3-(2-quinolylethenyl)benzyl]tetrazolyl}quinolin-2-one] |  |  |  |  | 174 |
| COc1ccc2c(c1)cc(-c1nnn(Cc3cccc(OCc4ccc5ccccc5n4)c3)n1)c(=O)n2CCCN1CCN(Cc2ccc3ccccc3n2)CC1 [Example 45, 1-{3-[4-(2-quinolylmethyl)-1-piperazinyl]propyl}-6-methoxy-3-(2-[3-(2-quinolylmethoxy)benzyl]tetrazolyl)quinolin-2-one dihydrochloride] | 640 |  |  |  | 21.9 |
| COc1ccc2c(c1)cc(-c1nnn(Cc3cccc(OCc4ccc5ccccc5n4)c3)n1)c(=O)n2CCCCN1CCN(Cc2ccc3ccccc3n2)CC1 [Example 47, 6-Methoxy-1-{4-[4-(2-quinolylmethyl)-piperazinyl]butyl}-3-{2-[3-(2-quinolylmethoxy)benzyl]tetrazolyl}quinolin-2-one dimalate] |  |  |  |  | 20 |
| COc1ccc2c(c1)cc(-c1nnn(Cc3cccc(OCc4ccc5ccccc5n4)c3)n1)c(=O)n2CCCN1CCN(Cc2ccccn2)CC1 [Example 48, 6-Methoxy-1-{3-[4-(2-pyridylmethyl)-piperazinyl]propyl}-3-{2-[3-(2-quinolylmethoxy)benzyl]tetrazolyl}quinolin-2-one dihydrochloride] |  |  |  |  | 115 |
| CN1CCN(CCCOc2ccc3c(c2)cc(-c2nnn(Cc4cccc(OCc5ccc6ccccc6n5)c4)n2)c(=O)n3C)CC1 [Example 52, 1-methyl-6-[3-(4-metylpiperazinyl)propyl]oxy-3-{2-[3-(2-quinolylmethoxy)benzyl]tetrazolyl}quinolin-2-one trihydrochloride] | 1300 |  |  |  | 912 |
| CC(=O)Oc1ccc2[nH]c(=O)c(-c3nnn(Cc4ccc(OCc5ccc6ccccc6n5)cc4)n3)cc2c1 [Example 56, 6-Acetoxy-3-{2-[4-(2-quinolylmethoxy)benzyl]-tetrazolyl}quinolin-2-one] |  | 84700 | 336 |  |  |
| CC(=O)Oc1ccc2[nH]c(=O)c(-c3nnn(Cc4cccc(OCc5ccc6ccccc6n5)c4)n3)cc2c1 [Example 58, 6-Acetoxy-3-{2-[3-(2-quinolylmethoxy)benzyl]-tetrazolyl}quinolin-2-one] |  | 480000 | 38.2 |  |  |
| NCC(=O)Oc1ccc2[nH]c(=O)c(-c3nnn(Cc4cccc(OCc5ccc6ccccc6n5)c4)n3)cc2c1 [Example 64, 6-Glycyloxy-3-{2-[3-(2-quinolylmethoxy)-benzyl]tetrazolyl}quinolin-2-one] |  | 61900 | 22.1 |  |  |
